From article PMC6493773, “Structure and mechanism of TagA, a novel membrane-associated glycosyltransferase that produces wall teichoic acids in pathogenic bacteria” (PLoS Pathogens, 2019)

Legend:
[1] = target: T1, full-length TagA from S. aureus (Staphylococcus aureus, UniProt Q7A714); test: anion-exchange HPLC of UDP formation, […] nm; type: biochemical; conditions: 200 nM enzyme; UDP-ManNAc made in situ from 100 μM UDP-GlcNAc by MnaA; 100 μM lipid-α analog; pH 7.5, 250 mM NaCl, 30°C
T1 construct: gene tarA; full-length; strain and plasmid only in supplement

[2] = target: T2, full-length TagA from T. italicus (UniProt D3T4E0); test: anion-exchange HPLC of UDP formation, […] nm; type: biochemical, Thermoanaerobacter thermocopriae; conditions: 200 nM enzyme; UDP-ManNAc made in situ from 100 μM UDP-GlcNAc by MnaA; 100 μM lipid-α analog; pH 7.5, 250 mM NaCl, 30°C
T2 construct: gene Thit_1850; full-length (195 + 49 C-terminal residues); purification details only in supplement
T2 sequence (D3T4E0 entry or part of it): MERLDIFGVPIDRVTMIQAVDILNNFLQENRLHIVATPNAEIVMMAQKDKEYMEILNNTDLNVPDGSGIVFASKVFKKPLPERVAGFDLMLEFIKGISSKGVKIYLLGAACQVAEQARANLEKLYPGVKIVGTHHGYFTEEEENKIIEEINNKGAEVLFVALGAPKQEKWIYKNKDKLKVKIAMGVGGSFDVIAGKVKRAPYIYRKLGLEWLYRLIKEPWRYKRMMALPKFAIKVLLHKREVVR

T1 sequence (Q7A714 whole entry): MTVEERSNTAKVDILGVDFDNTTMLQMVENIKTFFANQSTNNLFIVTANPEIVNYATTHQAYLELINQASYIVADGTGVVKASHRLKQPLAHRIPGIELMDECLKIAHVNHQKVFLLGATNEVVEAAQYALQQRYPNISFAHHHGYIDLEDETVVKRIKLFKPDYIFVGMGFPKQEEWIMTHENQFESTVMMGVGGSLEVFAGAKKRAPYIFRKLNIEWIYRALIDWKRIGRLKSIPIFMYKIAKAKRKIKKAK

Row | Structure (SMILES) | anion-exchange HPLC of UDP formation, 271 nm [1] | anion-exchange HPLC of UDP formation, 271 nm [2]
1 | CC(=O)N[C@@H]1[C@@H](OP(=O)(O)OP(=O)(O)OC[C@H]2O[C@@H](n3ccc(=O)[nH]c3=O)[C@H](O)[C@@H]2O)O[C@H](CO)[C@@H](O)[C@@H]1O [UDP-ManNAc] | full-length TagA enzymes from T. italicus and S. aureus exhibit similar transferase activities in vitro | we reconstituted its GT activity in vitro using UDP-ManNAc and a lipid-α analog
2 | CCCCCCCCCCCCCOP(=O)(O)OP(=O)(O)O[C@H]1O[C@H](CO)[C@@H](O)[C@H](O)[C@H]1NC(C)=O [lipid-α analog] | – | using UDP-ManNAc and a lipid-α analog that replaces its undecaprenyl chain with tridecane
